Assay [1] deals with S. aureus ATCC 29213 (SA) biofilm. Briefly: Anti-biofilm activity, pre-formed biofilm. Format: cell-based, Staphylococcus aureus. The following applies: only at the highest concentration 100 μg/mL, 4 h, PrestoBlue.
A further assay relates to MDR S. aureus (CH-11). Format: cell-based, Staphylococcus aureus.
For the next assay, the system named is S. aureus (ATCC 29213). Format: cell-based, Staphylococcus aureus. The conditions noted are these: overnight 37°C.
The subject of assay [2] is Acinetobacter baumannii CH52. In words: microbe, parasite or virus in culture.
For assay [3], the system named is Acinetobacter baumannii CH39. Briefly: microbe, parasite or virus in culture.
For assay [4], the system named is Acinetobacter baumannii CH45. In words: microbe, parasite or virus in culture.
The test system of assay [5] is Acinetobacter baumannii CH53. Briefly: microbe, parasite or virus in culture.
Assay [6] relates to Acinetobacter calcoaceticus CH37. Briefly: microbe, parasite or virus in culture.
Assay [7] has as its system Acinetobacter baumannii CH50. In words: microbe, parasite or virus in culture.
Assay [8] concerns Acinetobacter guillouiae CH42. Briefly: microbe, parasite or virus in culture.
Assay [9] concerns Acinetobacter baumannii CH54. Briefly: microbe, parasite or virus in culture.
Assay [10] deals with Acinetobacter baumannii CH47. In words: microbe, parasite or virus in culture.
Assay [11] has as its system Multi-drug resistant A. baumannii CH-46. In words: microbe, parasite or virus in culture. The following applies: Acinetobacter baumannii.
Assay [12] has as its system Acinetobacter ursingii CH41. In words: microbe, parasite or virus in culture.
Assay [13] has as its system Acinetobacter modestus CH43. Briefly: microbe, parasite or virus in culture.
For assay [14], the system named is Acinetobacter septicus CH44. In words: microbe, parasite or virus in culture.
The subject of assay [15] is Acinetobacter baumannii CH38. In words: microbe, parasite or virus in culture.
The subject of assay [16] is Acinetobacter baumannii CH49. In words: microbe, parasite or virus in culture.
The test system of assay [17] is Acinetobacter baumannii CH36. Briefly: microbe, parasite or virus in culture.
Assay [18] concerns Acinetobacter baumannii CH40. In words: microbe, parasite or virus in culture.
Assay [19] concerns Acinetobacter baumannii CH51. In words: microbe, parasite or virus in culture.
Assay [20] relates to Acinetobacter baumannii CH48. Briefly: microbe, parasite or virus in culture.
Assay [21] deals with Acinetobacter baumannii CH55. Briefly: microbe, parasite or virus in culture.
Assay [22] concerns Acinetobacter baumannii CH55.
Assay [23] has as its system Acinetobacter baumannii CH47.
For assay [24], the system named is Acinetobacter guillouiae CH42.
Assay [25] concerns Acinetobacter baumannii CH45.
Assay [26] has as its system Acinetobacter baumannii CH51.
Assay [27] relates to Acinetobacter baumannii CH54.
The subject of assay [28] is Acinetobacter ursingii CH41. The following applies: CH41, A. ursingii, drug resistance N.
Assay [29] has as its system Acinetobacter modestus CH43.
The subject of assay [30] is Acinetobacter septicus CH44. The following applies: CH44, A. septicus, drug resistance N.
Assay [31] concerns Acinetobacter baumannii CH39.
The subject of assay [32] is Acinetobacter calcoaceticus CH37.
Assay [33] concerns Acinetobacter baumannii CH48.
Assay [34] deals with Acinetobacter baumannii CH38.
Assay [35] concerns Acinetobacter baumannii CH49.
For assay [36], the system named is Acinetobacter baumannii CH36.
Assay [37] has as its system Multi-drug resistant A. baumannii CH-46. The conditions noted are these: Multi-drug resistant A. baumannii CH-46 (CH46 in Table S1, drug resistance Y); broth microplate dilution.
Assay [38] relates to Acinetobacter baumannii CH50.
For assay [39], the system named is Acinetobacter baumannii CH40.
For assay [40], the system named is Acinetobacter baumannii CH53.
In assay [41] the test system is Acinetobacter baumannii CH52.
The test system of another assay is S. aureus ATCC 29213. In words: Inhibition of bacterial adhesion, pre-coated polystyrene plates. Format: cell-based, Staphylococcus aureus. The following applies: wells pre-treated at 10 μg/mL, washed; bacteria incubated 1 to 24 h at 37°C, PrestoBlue.

≈ marks a conversion by molar mass, not a printed value. Where two headings read alike, the source gives them in different places. Positions of bridges follow the written chain, without caps; N, C: chain ends. Non-standard residues stand in square brackets, D forms with d. Residues, ends and D or L forms follow the SMILES beside them. *: point of attachment. X1 = CC[C@H](C)CCCCC(=O)*; Dab = NCC[C@H](N)C(=O)O

Take `CN[C@H](CC(C)C)C(=O)N[C@H]1C(=O)N[C@@H](CC(N)=O)C(=O)N[C@H]2C(=O)N[C@H]3C(=O)N[C@H](C(=O)N[C@H](C(=O)O)c4cc(O)cc(O)c4-c4cc3ccc4O)[C@H](O)c3ccc(c(Cl)c3)Oc3cc2cc(c3O[C@@H]2O[C@H](CO)[C@@H](O)[C@H](O)[C@H]2O[C@H]2C[C@](C)(N)[C@H](O)[C@H](C)O2)Oc2ccc(cc2Cl)[C@H]1O` [vancomycin]: the “Effect on viability of pre-formed biofilm” value in assay [1] is “partially effective”.
Take `COc1cccc(OC)c1C(=O)N[C@@H]1C(=O)N2[C@@H]1SC(C)(C)[C@@H]2C(=O)O` [Methicillin]: the “Frequency of Resistance to antibiotics” value with MDR S. aureus (CH-11) is on record as “resistant”; with S. aureus (ATCC 29213) (2X MIC in Mueller-Hinton agar, resistant colonies / CFU of inoculum), < 3.72 × 10^–10; with S. aureus (ATCC 29213) (3X MIC in Mueller-Hinton agar), < 3.72 × 10^–10; in the assay on S. aureus (ATCC 29213) (4X MIC in Mueller-Hinton agar), < 3.72 × 10^–10; in the assay with S. aureus (ATCC 29213) (5X MIC in Mueller-Hinton agar), < 3.72 × 10^–10; in the assay with S. aureus (ATCC 29213) (10X MIC in Mueller-Hinton agar), < 3.72 × 10^–10.
Regarding `C[C@@H](O)[C@H]1C(=O)N2C(C(=O)O)=C(SCCN=CN)C[C@H]12` [Imipenem], the MIC was 31.2 µg/mL (≈ 104 µM) in assay [2]; 15.6 µg/mL (≈ 52.2 µM) in assay [3]; 125 µg/mL (≈ 418 µM) in [4]; 31.2 µg/mL (≈ 104 µM) in [5]; 0.5 µg/mL (≈ 1.67 µM) in assay [6]; 62.5 µg/mL (≈ 209 µM) in assay [7]. The MIC worked out at 7.81 µg/mL (≈ 26.1 µM) in [8]; 7.81 µg/mL (≈ 26.1 µM) in [9]; 3.91 µg/mL (≈ 13.1 µM) in assay [10]; 250 µg/mL (≈ 835 µM) in assay [11]; 1 µg/mL (≈ 3.34 µM) in assay [12]; 0.5 µg/mL (≈ 1.67 µM) in assay [13]. In addition, the MIC in assay [14] is 1.46 µg/mL (≈ 4.88 µM); in [15], 125 µg/mL (≈ 418 µM); in assay [16] it was 62.5 µg/mL (≈ 209 µM); in assay [17], 250 µg/mL (≈ 835 µM); in assay [18], 31.2 µg/mL (≈ 104 µM); in assay [19], 31.2 µg/mL (≈ 104 µM). Further, the MIC in assay [20] is 7.81 µg/mL (≈ 26.1 µM); in assay [21], 46.9 µg/mL (≈ 157 µM).
Turning to `CC[C@H](C)CCCCC(=O)N[C@@H](CCN)C(=O)N[C@H](C(=O)N[C@@H](CCN)C(=O)N[C@H]1CCNC(=O)[C@H]([C@@H](C)O)NC(=O)[C@H](CCN)NC(=O)[C@H](CCN)NC(=O)[C@H](CC(C)C)NC(=O)[C@@H](CC(C)C)NC(=O)[C@H](CCN)NC1=O)[C@@H](C)O` [Colistin] (X1-[Dab]T[Dab][Dab][Dab][dL]L[Dab][Dab]T; lactam 4-C (inferred); N-terminus assumed), the MIC worked out at 7.81 µg/mL (≈ 6.68 µM) in assay [22]; 3.91 µg/mL (≈ 3.34 µM) in [23]; 3.91 µg/mL (≈ 3.34 µM) in [24]; 3.91 µg/mL (≈ 3.34 µM) in [25]; 3.91 µg/mL (≈ 3.34 µM) in assay [26]; 5.86 µg/mL (≈ 5.01 µM) in assay [27]. For the same molecule, the MIC in assay [28] is given as 1.95 µg/mL (≈ 1.67 µM); in [29] it was 7.81 µg/mL (≈ 6.68 µM); in assay [30] it was 1.95 µg/mL (≈ 1.67 µM); in [31], 3.91 µg/mL (≈ 3.34 µM); in assay [32] it was 3.91 µg/mL (≈ 3.34 µM); in assay [33], 3.91 µg/mL (≈ 3.34 µM). The MIC turned out to be 3.91 µg/mL (≈ 3.34 µM) in assay [34]; 3.91 µg/mL (≈ 3.34 µM) in assay [35]; 3.91 µg/mL (≈ 3.34 µM) in assay [36]; 3.91 µg/mL (≈ 3.34 µM) in assay [37]; 5.86 µg/mL (≈ 5.01 µM) in assay [38]; 5.86 µg/mL (≈ 5.01 µM) in assay [39]. Besides, the MIC in assay [40] and in assay [41] was 3.91 µg/mL (≈ 3.34 µM) each time.

B1: platelet factor 4: control cationic peptide (protein, UniProt P02776 32-101, looked up)
Platelet factor 4: EAEEDGDLQCLCVKTTSQVRPRHITSLEVIKAGPHCPTAQLIATLKNGRKICLDLQAPLYKKIIKKLLES
For the molecule B1, the “Inhibition of cell adhesion / biofilm formation on pre-treated polystyrene wells” value in the assay with S. aureus ATCC 29213 is recorded as “no effect on biofilm formation”.

(Values after publication PMC7721686, “Isolation, Characterization and Structure Elucidation of a Novel Lantibiotic From Paenibacillus sp” (Frontiers in Microbiology, 2020).)
